Laboratory results published in EP4813403A1, “USE OF GLP-1R/GIPR DOUBLE-TARGET AGONIST IN PREPARING ANIMAL DRUG” (Hangzhou Zhongmeihuadong Pharmaceutical Co., Ltd., priority 2023, dated 2025).
Where two headings read alike, the source gives them in different places.

How the values were obtained:
db/db mice [1] = test: Pharmacodynamic effects in db/db mice, single subcutaneous administration (blood glucose); assay type: in vivo; settings: single s.c. 10 nmol/kg
Procedure, shortened: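 Male db/db mice aged 8-9 weeks, fed ad libitum, were grouped by initial glucose and body weight (n=6) and dosed once subcutaneously. Random blood glucose from tail tip was tracked over 0 to 120 hours against vehicle. Hypoglycemic duration is the longest time with a significant difference from vehicle (T-test, p<0.05).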

[2] = Pharmacokinetics in C57 mice; settings: in vivo; for MRT: C57, mouse; for AUC(0-t): read-out: AUC(0-t); for AUC(0-inf): read-out: AUC(0-∞); for half-life: read-out: T1/2 (converted)
[3] = Repeated administration on male rats for 2 weeks (toxicity, toxicokinetics); assay type: in vivo, SD male rats
Protocol: 77 SD male rats (SPF grade) were selected and randomly divided into 10 groups based on body weight. Group 1 was the vehicle control group, including 5 animals. […] Group 5 to Group 7 were the groups administrated with the test substance 1; and Group 8 to Group 10 were the groups administrated with the test substance 2, each group including 8 animals, wherein 5 animals for primary test, and 3 animals for toxicokinetics test, and the administration dose was 1, 3 and 10 mg/kg respectively. Each of the above groups was continuously administered twice a week for 2 weeks (administrating at Day 1, Day 5, Day 8, Day 12 and Day 15).
During the experiment, the cage condition monitoring, detailed clinical observations, determination of the food consumption, determination of body weight, measurement of the blood biochemical and hematology indicator, investigation of the gross anatomy, weighing of the organ, studying on toxicokinetic were performed on all the groups of the animals.
Original data during each time period was tabulated. The average values and standard deviations and/or group change were calculated for each assay endpoint based on the group and sex. For each endpoint, the administrated group will be compared with the control group in the following aspect. A logarithmic conversion was performed to the endpoint data as desired prior to the start of the specific analyses.

db/db mice [4] = test: Multiple administration experiment on db/db mice; assay type: in vivo; settings: for AUC 4-25 day Glu / D28 FBG(Fasting Blood Glucose) / Liver Weight / Serum ALT / Serum TBIL / Serum TG: db/db mice, s.c. every 3 days for 4 weeks, Mean±SEM, 6 mice
Protocol: "Minimum effective dose" as disclosed in the present invention refers to the minimum administration dose at which the drug effect is produced.
"Efficacy dose" as disclosed in the present invention refers to the administration dose at which the drug effect is produced.
In this study, 7-8 week old male db/db mice were used. The db/db mice were placed in an individual ventilated cage (IVC) facility with a controlled temperature (20-26°C) and humidity (40-70%) and a controlled 12:12 h light-dark cycle. The mice received food and water ad libitum. Blood were sampled at the tail tip, and the base blood glucose was measured by a Roche blood glucose meter. The mice were randomly divided into groups according to the initial blood glucose and initial body weight (n=6/group), and each group had similar body weight and blood glucose.
The mice were subcutaneously administrated every 3 days for 4 weeks. Subcutaneous administration was conducted on days 1, 4, 7, 10, 13, 16, 19, 22 and 25. Random blood glucose was recorded every 3 days throughout the study. On day 28, the fasting blood glucose was measured. Then the blood was collected by orbital blood sampling. After the orbital blood sampling, the animals were sacrificed, and the liver was taken and weighed. After 1 to 2 hours, the collected blood was centrifuged at 3000 rpm for 10 min to separate the serum. Biochemical indicators such as triglyceride (TG), alanine aminotransferase (ALT), and total bilirubin (TBIL) were determined with a biochemical analyzer. The data results were statistically analyzed using GraphPad Prism8, and the statistical differences among the groups were analyzed following T-Test. Significant differences were identified at p<0.05.

[5] = mouse, sc, C57 mice, single subcutaneous administration
[6] = mouse, C57 mice, single intravenous administration

CC[C@H](C)[C@H](NC(=O)C(C)(C)NC(=O)[C@H](Cc1ccc(O)cc1)NC(=O)[C@H](CC(=O)O)NC(=O)[C@H](CO)NC(=O)[C@@H](NC(=O)C(C)(Cc1ccccc1)NC(=O)[C@@H](NC(=O)CNC(=O)[C@H](CCC(=O)O)NC(=O)C(C)(C)NC(=O)[C@@H](N)Cc1ccc(O)cc1)[C@@H](C)O)[C@@H](C)O)C(=O)NC(C)(C)C(=O)N[C@@H](CC(C)C)C(=O)N[C@@H](CC(=O)O)C(=O)N[C@@H](CCCCN)C(=O)N[C@@H](CCC(N)=O)C(=O)N[C@@H](C)C(=O)N[C@@H](CCC(N)=O)C(=O)N[C@@H](C)C(=O)N[C@@H](CCC(=O)O)C(=O)N[C@@H](Cc1ccccc1)C(=O)N[C@H](C(=O)N[C@@H](CCCCNC(=O)COCCOCCNC(=O)COCCOCCNC(=O)COCCOCCNC(=O)CC[C@H](NC(=O)CCCCCCCCCCCCCCCCCCCCC(=O)O)C(=O)O)C(=O)N[C@@H](Cc1c[nH]c2ccccc12)C(=O)N[C@@H](CC(C)C)C(=O)N[C@@H](CC(C)C)C(=O)N[C@@H](CCCCN)C(=O)NCC(=O)NCC(=O)N1CCC[C@H]1C(=O)N[C@@H](CO)C(=O)N[C@@H](CO)C(=O)NCC(=O)N[C@@H](C)C(=O)N1CCC[C@H]1C(=O)N1CCC[C@H]1C(=O)N1CCC[C@H]1C(=O)N[C@@H](CO)C(=O)N[C@@H](CCCCN)C(N)=O)C(C)C (some centres unmarked) [Compound P016]
inhibition of the blood glucose AUC, times of that of Tirzepatide (db/db mice [1]): 2.2 times
Hypoglycemic Duration (db/db mice [1]; Group 2, longest time with p<0.05 vs. vehicle): 104 h
MRT ([2]; iv, MRT(0-t)): 19.9 h
MRT ([2]; iv, MRT(0-∞)): 26.6 h
MRT ([2]; sc, MRT(0-t)): 26 h
MRT ([2]; sc, MRT(0-∞)): 35.9 h
AUC(0-t) [2, 5]: 15900 ng·h/mL
AUC(0-inf) [2, 5]: 18200 ng·h/mL
Cmax ([2]; mouse, sc, C57 mice, single subcutaneous administration, read-out: Cmax): 434 ng/mL
half-life [2, 5]: 23.1 h
Tmax ([2]; mouse, sc, C57 mice, single subcutaneous administration, read-out: Tmax): 8 h
AUC(0-t) [2, 6]: 11100 ng·h/mL
AUC(0-inf) [2, 6]: 12100 ng·h/mL
C0 ([2]; mouse, C57 mice, single intravenous administration, read-out: C0): 1150 ng/mL
half-life [2, 6]: 20.1 h
MTD ([3]; MTD for 2 weeks, rats): 1924 nmol/kg (MTD for 2 weeks)
dose at which decrease of the body weight was observed after the first administration ([3]; SD male rats): ≥ 1 mg/kg
Gross Anatomy ([3]; SD male rats, 1, 3, 10 mg/kg twice a week for 2 weeks): no abnormalities were found
accumulation (toxicokinetic) ([3]; SD male rats, administered twice a week for 2 weeks): no substantial accumulation
MTD at 336 h ([3]; Sprague-Dawley, rat, in vivo, SD male rats, administered twice a week for 2 weeks): ≥ 10 mg/kg
Safety Window (based on dosage) ([3]; rat 2-week MTD versus efficacy dose): 1282
safety window (based on exposure), times of that of Tirzepatide ([3]; rat, in vivo): more than 7 times
Efficacy Dose (db/db mice [4]; db/db mice multiple administrations, dose with blood glucose AUC p<0.05 vs. Vehicle): 3 nmol/kg
AUC 4-25 day Glu (db/db mice [4]; 3 nmol/kg): 256.38 ± 22 mmol·days/L
D28 FBG(Fasting Blood Glucose) (db/db mice [4]; 3 nmol/kg): 10.42 ± 1.46 mmol/L
Liver Weight (db/db mice [4]; 3 nmol/kg): 2.24 ± 0.1 g
Serum ALT (db/db mice [4]; 3 nmol/kg): 137.93±34.59 U/L
Serum TBIL (db/db mice [4]; 3 nmol/kg): 0.82 ± 0.13 µmol/L
Serum TG (db/db mice [4]; 3 nmol/kg): 1.21 ± 0.04 mmol/L
AUC 4-25 day Glu (db/db mice [4]; 10 nmol/kg): 249.25 ± 41.42 mmol·days/L
D28 FBG(Fasting Blood Glucose) (db/db mice [4]; 10 nmol/kg): 12.5 ± 2.19 mmol/L
Liver Weight (db/db mice [4]; 10 nmol/kg): 1.98 ± 0.12 g
Serum ALT (db/db mice [4]; 10 nmol/kg): 128.94±16.93 U/L
Serum TBIL (db/db mice [4]; 10 nmol/kg): 1.22 ± 0.28 µmol/L
Serum TG (db/db mice [4]; 10 nmol/kg): 1.22 ± 0.24 mmol/L
AUC 4-25 day Glu (db/db mice [4]; 30 nmol/kg): 163.98 ± 11.57 mmol·days/L
D28 FBG(Fasting Blood Glucose) (db/db mice [4]; 30 nmol/kg): 6.05 ± 0.41 mmol/L
Liver Weight (db/db mice [4]; 30 nmol/kg): 1.78 ± 0.08 g
Serum ALT (db/db mice [4]; 30 nmol/kg): 97.7±12.36 U/L
Serum TBIL (db/db mice [4]; 30 nmol/kg): 0.73 ± 0.16 µmol/L
Serum TG (db/db mice [4]; 30 nmol/kg): 1.2 ± 0.05 mmol/L
